This is an account of results in patent US20250041263A1, “USE OF CATECHIN FOR THE TREATMENT OF FGFR-RELATED BONE REPAIR AND BONE FORMATION IMPAIRMENT” (INSTITUT NATIONAL DE LA SANTÉ ET DE LA RECHERCHE MÉDICALE, priority 2021, published 2025).

This assay relates to HCH mice (Fgfr3^N534K/+). Kind of assay: Non-stabilized mandibular fracture repair in HCH mouse model (microCT, repair grade). It is filed as in vivo. To be noted: for BV/TV, treated vs untreated HCH mice: p<0.05. How it is done: I-Study of mandibular bone repair in the mouse model of hypochondroplasia (Fgfr3^[…]/+) Mandibular bone repair was studied in the HCH mouse model (Fgfr3^[…]/+). The experiments were performed in adult animals at 6 weeks of age, and mice were euthanized at 4 key points: during bone repair (10, 14, 21 days post fracture), and at the end of the normal bone healing process i.e. at 28 days post fracture. Vertical mandibular fractures were performed in the ascending ramus region in Fgfr3^[…]/+ and Fgfr3^+/+ mice. This is a non-stabilized mandibular fracture protocol allowing to analyze the endochondral bone repair process. Four batches (n=100) of Fgfr3^[…]/+ and Fgfr3^+/+ mandible fractures corresponding to different key stages of repair were studied (day 10, day 14, day 21, day 28). Using collagen type II (proliferative cartilage), type X (hypertrophic cartilage) and type I (bone) immunolabelling, we observed that the endochondral process is disturbed, we noted a delayed cartilage resorption, a reduction in the size of hypertrophic chondrocytes area and a defect in bone formation within the repair callus in Fgfr3^[…]/+ compared to Fgfr3^+/+. […] We observed the presence of pseudarthrosis (fibrosis in the callus) in Fgfr3^[…]/+ mice whereas we observed 100% of bone in Fgfr3^+/+ callus. Considering the quality of the newly formed bone at day 28, we defined four grades of repair and classified the mice according to their repair grade (from 1 to 4). The defective repair is significant in Fgfr3^[…]/+ compared to Fgfr3^+/+ (Data not shown). HCH mice (Fgfr3^[…]/+) were treated with (-)-epicatechin (subcutaneous injection at 0.3 mg/kg, 3 times per week) from day 0 (facture of the mandible) to day 14 or day 28. The bone repair analyses were evaluated by microCT scans at day 14 (FIG. 1A) and day 28 (FIG. 1B) post fracture.

[1] abbreviates: day 28 grade repair, treated HCH mice.
[2] abbreviates: microCT, day 14 post fracture, FIG. 1A.
Setting [3] is: microCT, day 28 post fracture, FIG. 1B.
[4] abbreviates: summary statement, time not stated.

In the case of `Oc1cc(O)c2c(c1)O[C@H](c1ccc(O)c(O)c1)[C@H](O)C2` [(−)-epicatechin, (2R,3R)-2-(3,4-dihydroxyphenyl)-3,4-dihydro-2H-chromene-3,5,7-triol], under setting [1], the “Complete bone healing (grade 1), mice with grade / treated mice” value was 1/9; the “Restoration of bone continuity, but presence of mild bone defects (grade 2), mice with grade / treated mice” value is recorded as 6/9; the “presence of a bone callus, but with partial bone discontinuity (grade 3), mice with grade / treated mice” value is 2/9. Moreover, the “pseudarthrosis in treated HCH mice” value (day 28 post fracture) is “did not observe pseudarthrosis”. Further, under setting [2], the “BV/TV of treated Fgfr3^N534K/+ mandibles (in words)” value is given as “increased” and the “volume of the callus, treated vs untreated Fgfr3^N534K/+ (in words)” value is on record as “unchanged”. Also, the “BV/TV, treated vs untreated HCH mice” value (microCT, day 14 post fracture, subcutaneous 0.3 mg/kg, 3 times per week from day 0) is given as “+19%”. Further, under setting [3], the “BV/TV of treated Fgfr3^N534K/+ mandibles (in words)” value is given as “increased” and the “volume of the callus, treated vs untreated Fgfr3^N534K/+ (in words)” value is given as “decreased”. Besides, the “volume of the callus, treated vs untreated HCH mice” value (microCT, day 28 post fracture, subcutaneous 0.3 mg/kg, 3 times per week from day 0, p<0.01) is given as −39.8%. Besides, the “BV/TV, treated vs untreated HCH mice” value (microCT, day 28 post fracture, subcutaneous 0.3 mg/kg, 3 times per week from day 0) is on record as “+6.3%”. Also, under setting [4], the “mandible bone formation and repair / defective bone reparation of the callus (overall, in words)” value was “improves”.

As for catechin, under setting [4], the “bone volume/total volume (overall, in words)” value is “increases”; the “mandible bone formation and repair / defective bone reparation of the callus (overall, in words)” value is listed as “partially restores”; the “pseudarthrosis (overall, in words)” value was “without pseudarthrosis”.
